Data reported in ChEMBL document CHEMBL1201862, “PubChem BioAssay data set” (2004).
The source made the active and inactive calls.

How the values were obtained:
Leucine aminopeptidase = target: T1, Leucine aminopeptidase (Plasmodium falciparum 3D7, UniProt Q8IL11); experiment: P. falciparum M17LAP inhibitors, primary screen, biochemical, fluorogenic H-Leu-NHMec substrate, 1536-well (AID 1619); type: functional
T1 sequence (Q8IL11 whole entry): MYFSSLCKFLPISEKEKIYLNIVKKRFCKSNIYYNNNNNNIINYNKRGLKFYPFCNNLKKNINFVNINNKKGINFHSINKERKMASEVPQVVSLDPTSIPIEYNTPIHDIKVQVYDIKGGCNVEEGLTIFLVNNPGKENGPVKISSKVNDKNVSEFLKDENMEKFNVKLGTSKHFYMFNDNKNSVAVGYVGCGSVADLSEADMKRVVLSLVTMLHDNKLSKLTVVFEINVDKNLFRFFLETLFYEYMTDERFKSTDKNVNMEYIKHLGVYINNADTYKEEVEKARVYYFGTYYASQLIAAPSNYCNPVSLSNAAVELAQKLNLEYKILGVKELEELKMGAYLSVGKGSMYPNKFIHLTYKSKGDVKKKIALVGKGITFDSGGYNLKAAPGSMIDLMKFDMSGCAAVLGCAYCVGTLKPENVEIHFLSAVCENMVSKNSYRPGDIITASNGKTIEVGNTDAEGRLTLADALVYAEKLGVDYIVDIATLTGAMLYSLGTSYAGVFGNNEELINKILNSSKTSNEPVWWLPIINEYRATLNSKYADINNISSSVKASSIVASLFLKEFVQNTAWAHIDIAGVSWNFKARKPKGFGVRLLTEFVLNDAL

[1] = target: Ras and Rab interactor 1/Tyrosine-protein kinase ABL1 (Homo sapiens, UniProt P00519+Q13671); type: functional;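 note: biochemical TR-FRET dose-response test measuring inhibition of binding between Rin1 and Abl proteins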
Ras and Rab interactor 1/Tyrosine-protein kinase ABL1, sequence (P00519 whole entry): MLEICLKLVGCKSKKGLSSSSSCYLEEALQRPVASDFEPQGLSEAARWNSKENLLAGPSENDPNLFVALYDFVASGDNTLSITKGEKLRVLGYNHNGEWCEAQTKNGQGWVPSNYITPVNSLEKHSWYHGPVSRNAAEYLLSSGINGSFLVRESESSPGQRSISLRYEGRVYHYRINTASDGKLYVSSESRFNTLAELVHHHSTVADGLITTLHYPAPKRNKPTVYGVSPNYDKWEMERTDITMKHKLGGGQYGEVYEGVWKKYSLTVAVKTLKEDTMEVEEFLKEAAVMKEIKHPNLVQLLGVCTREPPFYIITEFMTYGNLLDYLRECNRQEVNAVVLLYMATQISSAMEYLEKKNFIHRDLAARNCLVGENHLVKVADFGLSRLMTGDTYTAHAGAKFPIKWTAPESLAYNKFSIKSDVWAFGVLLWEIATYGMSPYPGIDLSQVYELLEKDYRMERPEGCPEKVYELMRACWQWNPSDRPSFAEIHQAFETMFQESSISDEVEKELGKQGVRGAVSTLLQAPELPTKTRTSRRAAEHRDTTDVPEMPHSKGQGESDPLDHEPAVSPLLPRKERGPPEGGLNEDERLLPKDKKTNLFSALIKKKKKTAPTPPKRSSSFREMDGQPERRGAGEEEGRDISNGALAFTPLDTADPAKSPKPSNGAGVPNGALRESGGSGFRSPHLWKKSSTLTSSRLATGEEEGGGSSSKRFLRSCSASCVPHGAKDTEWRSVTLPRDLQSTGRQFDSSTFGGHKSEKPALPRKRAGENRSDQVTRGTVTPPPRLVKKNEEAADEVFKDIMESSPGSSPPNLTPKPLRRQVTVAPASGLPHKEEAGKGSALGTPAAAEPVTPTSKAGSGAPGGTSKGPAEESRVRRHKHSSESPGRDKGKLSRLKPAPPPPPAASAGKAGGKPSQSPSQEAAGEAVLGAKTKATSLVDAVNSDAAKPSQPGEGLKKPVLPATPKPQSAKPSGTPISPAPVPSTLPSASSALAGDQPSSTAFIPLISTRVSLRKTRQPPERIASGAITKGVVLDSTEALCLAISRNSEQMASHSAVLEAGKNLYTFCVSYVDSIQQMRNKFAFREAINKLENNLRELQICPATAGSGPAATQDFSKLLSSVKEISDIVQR
Ras and Rab interactor 1/Tyrosine-protein kinase ABL1, sequence (Q13671 whole entry): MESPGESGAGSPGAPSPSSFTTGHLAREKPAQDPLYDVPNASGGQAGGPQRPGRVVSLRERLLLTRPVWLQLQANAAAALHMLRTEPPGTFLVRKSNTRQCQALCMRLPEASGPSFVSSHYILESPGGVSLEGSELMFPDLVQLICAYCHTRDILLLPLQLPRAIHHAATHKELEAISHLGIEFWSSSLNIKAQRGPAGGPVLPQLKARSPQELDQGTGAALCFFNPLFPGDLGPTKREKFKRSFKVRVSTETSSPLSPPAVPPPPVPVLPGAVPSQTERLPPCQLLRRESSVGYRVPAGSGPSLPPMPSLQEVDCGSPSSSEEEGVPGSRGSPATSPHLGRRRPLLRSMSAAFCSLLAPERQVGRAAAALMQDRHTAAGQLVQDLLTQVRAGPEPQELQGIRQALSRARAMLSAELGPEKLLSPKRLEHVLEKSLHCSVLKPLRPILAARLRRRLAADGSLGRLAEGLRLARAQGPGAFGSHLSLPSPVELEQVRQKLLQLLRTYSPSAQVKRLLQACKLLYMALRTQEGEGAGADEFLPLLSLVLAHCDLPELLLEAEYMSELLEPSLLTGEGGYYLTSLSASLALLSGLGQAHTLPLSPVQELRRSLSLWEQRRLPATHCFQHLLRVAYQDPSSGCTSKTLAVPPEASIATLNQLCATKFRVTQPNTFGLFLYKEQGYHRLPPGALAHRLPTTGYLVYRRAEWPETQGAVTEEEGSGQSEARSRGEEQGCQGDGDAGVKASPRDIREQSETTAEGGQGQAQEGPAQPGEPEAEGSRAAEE

[2] = target: DNA (cytosine-5)-methyltransferase 1 (Homo sapiens, UniProt P26358); experiment: inhibition of DNA methylation by DNMT1 – biochemical, fluorescent molecular beacon, confirmation (AID 602386); type: functional
DNA (cytosine-5)-methyltransferase 1, sequence (P26358 whole entry): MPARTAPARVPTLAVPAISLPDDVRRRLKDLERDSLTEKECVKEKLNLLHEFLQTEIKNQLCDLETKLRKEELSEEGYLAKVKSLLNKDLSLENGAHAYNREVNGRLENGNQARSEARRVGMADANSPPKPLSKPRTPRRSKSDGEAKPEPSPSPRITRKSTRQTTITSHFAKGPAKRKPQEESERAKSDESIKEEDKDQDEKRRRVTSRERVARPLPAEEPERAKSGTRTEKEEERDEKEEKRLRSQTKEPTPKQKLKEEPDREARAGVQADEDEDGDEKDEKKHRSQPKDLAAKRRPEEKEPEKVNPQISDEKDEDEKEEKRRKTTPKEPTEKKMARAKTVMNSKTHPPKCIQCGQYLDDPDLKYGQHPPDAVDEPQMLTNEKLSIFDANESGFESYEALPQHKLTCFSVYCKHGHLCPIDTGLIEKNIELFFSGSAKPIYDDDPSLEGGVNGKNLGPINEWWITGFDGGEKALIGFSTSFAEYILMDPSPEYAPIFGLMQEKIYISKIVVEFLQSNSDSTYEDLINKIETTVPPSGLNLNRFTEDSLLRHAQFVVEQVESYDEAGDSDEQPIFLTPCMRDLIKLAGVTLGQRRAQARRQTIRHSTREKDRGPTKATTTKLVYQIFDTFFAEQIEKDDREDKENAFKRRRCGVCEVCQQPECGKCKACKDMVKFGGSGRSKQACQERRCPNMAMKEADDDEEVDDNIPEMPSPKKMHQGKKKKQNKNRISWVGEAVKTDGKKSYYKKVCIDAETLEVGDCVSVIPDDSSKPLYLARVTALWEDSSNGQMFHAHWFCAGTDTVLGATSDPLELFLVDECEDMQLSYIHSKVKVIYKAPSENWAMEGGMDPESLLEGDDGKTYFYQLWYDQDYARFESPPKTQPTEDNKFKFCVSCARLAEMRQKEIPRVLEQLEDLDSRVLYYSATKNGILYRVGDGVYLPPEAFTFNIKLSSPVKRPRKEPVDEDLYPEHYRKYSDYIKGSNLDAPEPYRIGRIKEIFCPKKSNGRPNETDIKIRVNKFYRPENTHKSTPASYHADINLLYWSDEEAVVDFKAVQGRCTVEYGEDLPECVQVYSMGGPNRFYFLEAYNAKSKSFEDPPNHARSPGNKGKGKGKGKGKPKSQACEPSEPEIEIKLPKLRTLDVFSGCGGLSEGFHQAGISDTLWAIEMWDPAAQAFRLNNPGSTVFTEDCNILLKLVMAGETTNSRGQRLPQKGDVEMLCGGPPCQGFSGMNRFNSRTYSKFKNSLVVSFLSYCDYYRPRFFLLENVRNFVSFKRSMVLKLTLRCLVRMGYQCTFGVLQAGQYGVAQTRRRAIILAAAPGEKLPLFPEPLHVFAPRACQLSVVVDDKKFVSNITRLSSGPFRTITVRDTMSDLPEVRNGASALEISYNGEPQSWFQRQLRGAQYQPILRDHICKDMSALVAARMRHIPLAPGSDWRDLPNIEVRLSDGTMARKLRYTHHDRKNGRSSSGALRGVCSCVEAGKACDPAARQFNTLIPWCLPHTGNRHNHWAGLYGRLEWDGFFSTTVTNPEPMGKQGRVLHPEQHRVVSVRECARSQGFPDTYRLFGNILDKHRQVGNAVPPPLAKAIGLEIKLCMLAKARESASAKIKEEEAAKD

Caspase-6 = Caspase-6 (Homo sapiens, UniProt P55212); experiment: inhibition of CASP6 peptide cleavage – biochemical, VEID-R110 fluorescence, cherry-pick, dose response (AID 720632)
Caspase-6, sequence (P55212 24-179 limits assumed): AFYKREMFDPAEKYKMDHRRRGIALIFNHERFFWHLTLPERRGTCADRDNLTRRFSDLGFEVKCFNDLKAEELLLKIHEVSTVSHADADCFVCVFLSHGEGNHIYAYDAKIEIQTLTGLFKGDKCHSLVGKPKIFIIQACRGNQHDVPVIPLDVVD
Caspase-6, sequence (P55212 194-293 limits assumed): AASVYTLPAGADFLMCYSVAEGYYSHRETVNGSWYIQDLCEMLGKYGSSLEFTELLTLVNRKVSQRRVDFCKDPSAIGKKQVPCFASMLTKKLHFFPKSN

Phospholipase A2 = Phospholipase A2 (Homo sapiens, UniProt P04054); type: functional;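 note: confirmatory dose-response counterscreen on phospholipase A2, testing hits that came from an ultra-high-throughput screen for ATG4B inhibitors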
Phospholipase A2, sequence (P04054 whole entry): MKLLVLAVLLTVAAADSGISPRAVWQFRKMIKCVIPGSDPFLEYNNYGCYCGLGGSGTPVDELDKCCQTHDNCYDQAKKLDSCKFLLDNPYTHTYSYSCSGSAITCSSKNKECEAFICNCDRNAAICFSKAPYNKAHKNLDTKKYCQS

Cysteine protease ATG4B = Cysteine protease ATG4B (Homo sapiens, UniProt Q9Y4P1); type: functional;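 note: Fluorescence-based dose-response confirmation assay measuring inhibition of ATG4B activity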
Cysteine protease ATG4B, sequence (Q9Y4P1 whole entry): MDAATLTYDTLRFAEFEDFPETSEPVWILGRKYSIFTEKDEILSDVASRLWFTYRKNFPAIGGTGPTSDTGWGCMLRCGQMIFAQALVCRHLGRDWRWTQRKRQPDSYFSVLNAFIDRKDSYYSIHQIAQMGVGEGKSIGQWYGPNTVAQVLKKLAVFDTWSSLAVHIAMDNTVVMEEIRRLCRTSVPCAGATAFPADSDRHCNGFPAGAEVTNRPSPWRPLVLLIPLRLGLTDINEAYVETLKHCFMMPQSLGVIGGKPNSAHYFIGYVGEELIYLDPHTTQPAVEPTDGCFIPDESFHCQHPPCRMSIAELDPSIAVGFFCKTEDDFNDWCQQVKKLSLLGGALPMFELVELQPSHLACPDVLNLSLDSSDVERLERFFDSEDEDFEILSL

| IC50 (Leucine aminopeptidase) | IC50 [1] | IC50 [2] | AC50 (Caspase-6) | IC50 (Phospholipase A2) | IC50 (Cysteine protease ATG4B) | Structure (SMILES) |
| --- | --- | --- | --- | --- | --- | --- |
| 3.12 µM (active) | 24.9 µM (inactive) |  |  |  |  | Cc1ccc(-n2c(SCC(=O)N3Cc4ccccc4CC3C(=O)O)nnc2-c2cccnc2)c(C)c1 (configuration not stated) |
|  |  | 11.7 µM (active) | 38.4 µM (active) |  |  | O=C(O)CCc1ccc(S(=O)(=O)Nc2cc(C(F)(F)F)ccc2N2CCCC2)cc1 |
| 10.6 µM (active) |  |  |  | 11 µM (active) | 15 µM (active) | CCOc1cc(/C=C2/SC(=O)N(CC(=O)N3CCc4ccccc4C3)C2=O)ccc1OCC(=O)O |
